Read-outs that look alike come from different tables or passages of the source.
Key:
[1] = tested on: adults of Tetranychus cinnabarinus; experiment: Acaricidal activity against adults in greenhouse (spray on broadbean shoots, mortality after 72 hrs); assay type: in vivo; conditions: for control against adults of Tetranychus cinnabarinus: spray, 72 hrs
Description: (§1) The activity determinations of compounds of the present invention against adults, nymphs and eggs of Tetranychus cinnabarinus were carried out in greenhouse by the following procedures:
The activity determination against adults in greenhouse: the compounds were weighed and dissolved in acetone to obtain mother liquid, and then the mother liquid was diluted to required concentration with placed running water containing 0.1% of Tween 80. Broadbean shoots with two true leaves were used to inoculate adults of Tetranychus cinnabarinus which were counted, spraying treatment was performed by portable sprayer (DeVilbiss Atomizer M163), 3 replicates were set for each treatment. After treatment the broadbean shoots were maintained in standard observation room. Scores were conducted and mortalities were calculated after 72 hrs.

[2] = tested on: nymphs of Tetranychus cinnabarinus; experiment: Acaricidal activity against nymphs in greenhouse (spray, mortality after 72 hrs); assay type: in vivo
Description: as §1
The activity determination against nymphs in greenhouse: broadbean shoots with two true leaves in pot were taken, ten healthy female adults of Tetranychus cinnabarinus were inoculated to the leaves, the adults were removed after 24 hrs and the eggs were cultivated into nymphs after 7-10 days. The nymphs were counted and then sprayed. 3 replicates were set for each treatment. And then were maintained in standard observation room. Scores were conducted and mortalities were calculated after 72 hrs.

[3] = tested on: eggs of Tetranychus cinnabarinus; experiment: Activity against eggs in greenhouse (hatching inhibition rate); assay type: in vivo; conditions: Tetranychus cinnabarinus
Description: as §1
The activity determination against eggs in greenhouse: Broadbean shoots in pot with one true leaf retained were taken, ten healthy female adults of Tetranychus cinnabarinus were inoculated to the leaves, the adults were removed after 24 hrs and the eggs were counted and then sprayed. The treatment of test compounds and spaying method were the same as that of the activity determination in greenhouse against adults. Once eggs of blank control were all hatched after 5 days, unhatched eggs in each treatment were investigated and the hatching inhibition rate were calculated.

citrus red mite = experiment: Field trial against citrus red mite (Guilin, China); assay type: in vivo
Description: Field Trial Against Citrus Red Mite (Guilin, China)
The trial was carried out in a 2-year-old Shatang orange orchard in Chaotian town lingchuan county guilin city, trifoliate orange trees were selected as stocks, the intervals between two plants was 1.5×2.5 m, the average height was 1.45 m and the crown width was 1.30 m. Two trees were selected in each plot, with random arrangement and 4 replications. Compound 9 (15% SC) was set at two different doses (100 mg/L and 25 mg/L), and spirodiclofen (24% SC) was set at one dose (48 mg/L). Matabi Supergreen 16 Knapsack Sprayer 16 Liter was used to spray evenly with 2 L of spaying volume for each plant. The plants were treated once on 30 Oct. 2009, at that time, adults, nymphs and eggs of citrus red mite all existed, with adults/eggs=1/1.27. During the day the plants were treated, and the weather was good with the average temperature at 23° C. The first three days after treatment were all clear days. The number of mites was investigated before treatment and on the 1st, 3rd, 10th, 15th, 20th and 30th day after treatment respectively. Two trees of each plot were investigated according to the five directions of the tree crown (east, south, west, north and central), 5 leaves in each direction were investigated to calculate the number of living mites, with 50 leaves each plot. The decline rate of mite population and corrected efficacy were calculated according to formulas below: The decline rate of mite population(%)=[(the average number of mite on each leaf before treatment−the average number of mite on each leaf after treatment)/the average number of mite on each leaf before treatment]×100. Corrected efficacy(%)=[(the decline rate of mite population in treated area−the decline rate of mite population in untreated area)/(100−the decline rate of mite population in untreated area)]×100.

Work on CO/C=C(/C(=O)OC)c1ccccc1COc1cc(C(F)(F)F)nc(Nc2ccc(Cl)cc2Cl)n1 [Compound 9] yielded a mortality at 0.625 µg/mL ([1]; Tetranychus cinnabarinus, 0.625 mg/L, Table 7, read-out: mortalities of adults of Tetranychus cinnabarinus (%)) of 88%, a mortality at 1.25 µg/mL ([1]; Tetranychus cinnabarinus, 1.25 mg/L, Table 7, read-out: mortalities of adults of Tetranychus cinnabarinus (%)) of 90% and a mortality at 2.5 µg/mL ([1]; Tetranychus cinnabarinus, 2.5 mg/L, Table 7, read-out: mortalities of adults of Tetranychus cinnabarinus (%)) of 98%. It also gave a mortality at 5 µg/mL ([1]; Tetranychus cinnabarinus, 5 mg/L, Table 7, read-out: mortalities of adults of Tetranychus cinnabarinus (%)) of 100%, a mortality at 10 µg/mL ([1]; Tetranychus cinnabarinus, 10 mg/L, Table 7, read-out: mortalities of adults of Tetranychus cinnabarinus (%)) of 100% and a mortality at 40 µg/mL ([1]; Tetranychus cinnabarinus, 40 mg/L, Table 7, read-out: mortalities of adults of Tetranychus cinnabarinus (%)) of 100%. For the same molecule, the “control against adults of Tetranychus cinnabarinus” value (from here on “control against adults”) ([1]; dose 5 mg/L) was 100%, the “control against adults” value ([1]; dose 10 mg/L) was 100% and the “control against adults” value ([1]; dose 40 mg/L) was 100%. The “control against adults” value ([1]; dose 100 mg/L) was 100%, the “control against nymphs of Tetranychus cinnabarinus” value ([2]; dose 0.63 mg/L) was “more than 95%” and the “control against nymphs of Tetranychus cinnabarinus” value ([2]; dose 2.5 mg/L) was 100%. The inhibition at 0.625 µg/mL ([3]; 0.625 mg/L, Table 8, read-out: hatching inhibition rate against eggs (%)) was 20%, the inhibition at 2.5 µg/mL ([3]; 2.5 mg/L, Table 8, read-out: hatching inhibition rate against eggs (%)) was 100% and the inhibition at 10 µg/mL ([3]; 10 mg/L, Table 8, read-out: hatching inhibition rate against eggs (%)) was 100%. For the same molecule, the inhibition at 2.5 µg/mL ([3]; dose 2.5 mg/L, read-out: hatching inhibition rate against eggs of Tetranychus cinnabarinus) was ≥ 90%, the inhibition at 10 µg/mL ([3]; dose 10 mg/L, read-out: hatching inhibition rate against eggs of Tetranychus cinnabarinus) was 100% and the “Corrected efficacy (%)” value (citrus red mite; 25 mg/L (15% SC), the 1st day after treatment) was 90%. For the same molecule, the “Corrected efficacy (%)” value (citrus red mite; 25 mg/L (15% SC), the 3rd day after treatment) was 92%, the “Corrected efficacy (%)” value (citrus red mite; 25 mg/L (15% SC), the 10th day after treatment) was 83% and the “Corrected efficacy (%)” value (citrus red mite; 25 mg/L (15% SC), the 15th day after treatment) was 91%. The “Corrected efficacy (%)” value (citrus red mite; 25 mg/L (15% SC), the 20th day after treatment) was 92%, the “Corrected efficacy (%)” value (citrus red mite; 25 mg/L (15% SC), the 30th day after treatment) was 91% and the “Corrected efficacy (%)” value (citrus red mite; 100 mg/L (15% SC), the 1st day after treatment) was 92%. For the same molecule, the “Corrected efficacy (%)” value (citrus red mite; 100 mg/L (15% SC), the 3rd day after treatment) was 96%, the “Corrected efficacy (%)” value (citrus red mite; 100 mg/L (15% SC), the 10th day after treatment) was 96% and the “Corrected efficacy (%)” value (citrus red mite; 100 mg/L (15% SC), the 15th day after treatment) was 95%. The “Corrected efficacy (%)” value (citrus red mite; 100 mg/L (15% SC), the 20th day after treatment) was 97% and the “Corrected efficacy (%)” value (citrus red mite; 100 mg/L (15% SC), the 30th day after treatment) was 94%.

CO/C=C(/C(=O)OC)c1ccccc1COc1nc(Nc2ccc(F)cc2F)nc2c1CCC2 [Compound 96] showed a melting point of 106 to 108 °C.

CO/C=C(/C(=O)OC)c1ccccc1COc1nc(Nc2ccc(Cl)cc2Cl)nc2c1CCC2 [Compound 97] showed a melting point of 150 to 151 °C.

For CO/C=C(/C(=O)OC)c1ccccc1COc1nc(Nc2ccc(F)c(F)c2F)nc2c1CCC2 [Compound 103], the melting point was 118 to 120 °C.

With CO/C=C(/C(=O)OC)c1ccccc1COc1nc(Nc2ccc(Cl)c(C)c2Cl)nc2c1CCC2 [Compound 105] the melting point was 150 to 151 °C.

CO/C=C(/C(=O)OC)c1ccccc1COc1nc(Nc2cccc(Cl)c2Cl)nc2c1CCC2 [Compound 128] gave a melting point of 132 to 134 °C.
